In the assay the target is T1, Monocarboxylate transporter 1 (MCT1) (Mus musculus, UniProt P53986).
T1 sequence (P53986 1-493): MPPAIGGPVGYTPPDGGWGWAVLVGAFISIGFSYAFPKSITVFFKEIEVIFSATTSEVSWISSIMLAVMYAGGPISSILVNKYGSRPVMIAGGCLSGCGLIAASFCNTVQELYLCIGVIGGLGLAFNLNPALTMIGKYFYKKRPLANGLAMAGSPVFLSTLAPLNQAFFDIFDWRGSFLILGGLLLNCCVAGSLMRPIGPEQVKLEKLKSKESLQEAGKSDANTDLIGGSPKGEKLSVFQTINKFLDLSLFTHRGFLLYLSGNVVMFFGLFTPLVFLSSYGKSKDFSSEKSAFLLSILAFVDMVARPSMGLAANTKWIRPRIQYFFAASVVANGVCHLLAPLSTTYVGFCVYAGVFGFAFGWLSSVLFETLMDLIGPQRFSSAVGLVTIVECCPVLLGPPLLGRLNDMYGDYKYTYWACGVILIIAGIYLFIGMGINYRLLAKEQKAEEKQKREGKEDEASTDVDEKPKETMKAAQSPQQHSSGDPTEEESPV
T1 sequence (P18572 22-389 partner): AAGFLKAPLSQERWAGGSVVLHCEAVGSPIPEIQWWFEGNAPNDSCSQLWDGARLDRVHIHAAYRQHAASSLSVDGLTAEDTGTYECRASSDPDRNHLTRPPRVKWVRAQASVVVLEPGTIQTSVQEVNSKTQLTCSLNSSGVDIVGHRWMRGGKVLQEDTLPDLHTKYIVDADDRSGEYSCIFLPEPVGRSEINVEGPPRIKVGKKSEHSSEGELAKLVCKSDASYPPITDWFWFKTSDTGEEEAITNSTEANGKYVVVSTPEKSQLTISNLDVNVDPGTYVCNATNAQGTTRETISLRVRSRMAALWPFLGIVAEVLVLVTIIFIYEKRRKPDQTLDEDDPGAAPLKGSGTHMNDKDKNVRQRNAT
The assay can be described thus: inhibition of radiolabeled L-lactate uptake in 4T1 cells. Type of assay: cell-based.

The IC50 is the point on the concentration scale where inhibition reaches its midpoint. Read a low IC50 as greater potency.

The compound `N#C/C(=C\c1ccc(O)cc1)C(=O)O` [CHC, α-cyano-4-hydroxycinnamic acid] returned a concentration for half-maximal inhibition (IC50) of 7.57 ± 15.2 mM.
`Cc1[nH]nc(C(F)(F)F)c1Cc1sc2c(c1C(=O)N1C[C@](C)(O)CO1)c(=O)n(C)c(=O)n2C(C)C` [AZD3965] showed an IC50 of 1.7e-05 ± 3.6e-06 mM.

Values taken from paper PMC8066402 (The AAPS journal, 2020).
